Data from patent publication US20050208088A1, “Pesticidal composition and method for pest control” (priority 2004, published 2005).

Test system: thrips
Assay: Thrips control in cotton, seed treatment field trials (1) and (2)
Format: in vivo, thrips on cotton
Settings: for Adult Thrips 14 DAP / Immature Thrips 14 DAP / Immature Thrips 21 DAP: cotton DP 555 BR, seed treatment; for Adult Thrips 14 DAP / Immature Thrips 14 DAP: 14 days after planting; for Adult Thrips 14 DAP: number of adult thrips; for Immature Thrips 14 DAP / Immature Thrips 21 DAP: number of immature thrips; for Immature Thrips 21 DAP / Damage 21 DAP: 21 days after planting; for Damage 21 DAP: visual plant damage rating, scale 1 to 5 (1=no damage, 3=moderate damage, 5=severe damage)
Description: (a) A base fungicide seed treatment formulation is prepared by diluting a concentrate containing 3.32% mefenoxam (CAS# 70630-17-0), 1.11% fludioxonil (CAS# 131341-86-1) and 6.64% azoxystrobin (CAS# 131860-33-8), into water as a carrier. […] Seed treated are allowed to air dry and shipped and stored at ambient temperature prior to planting (approximately two weeks). (b) A seed treatment formulation is prepared by diluting Cruiser® […] seed treatment insecticide (Syngenta Crop Protection, Inc), which contains 49% thiamethoxam and the base fungicide concentrate described in (a), into water as a carrier. […] Seed treated are allowed to air dry and shipped and stored at ambient temperature prior to planting (approximately two weeks). (c) An abamectin seed treatment formulation is prepared by diluting an abamectin […] seed treatment nematicide formulation containing 46.3% abamectin and the base fungicide concentrate (a), into water as a carrier. […] Seed treated were allowed to air dry and were shipped and stored at ambient temperature prior to planting (approximately two weeks). The above formulations of thiamethoxam and abamectin were combined together into water as a carrier and with the base fungicide (a). […] This formulation dilution was applied for one to two minutes at ambient temperature to approximately one kilogram of Delta and Pine Land cottonseed (DP 555 BR) in a Hege seed treater. Seed treated were allowed to air dry and were shipped and stored at ambient temperature prior to planting (approximately two weeks). Control (a) and treated cottonseed (b) (c) and (d) were planted in field plots in two separate trials (1) and (2) as follows: Cottonseed is sown (4 seeds per foot) in plots with dimensions of 2 rows (36 inch row spacing) by 30-feet in a randomized complete block layout consisting of an control check (a), abamectin plus a base fungicide (c), thiamethoxam plus a base fungicide (b) and the combination of thiamethoxam and abamectin plus a base fungicide (d). […] Thrips were collected from five random plants within each replication of each treatment by collecting thrips in alcohol and counting the numbers of thrips using a dissecting scope in the laboratory.

Compound | Adult Thrips 14 DAP (Trial (1)) [per five plants] | Immature Thrips 14 DAP (Trial (1)) [per five plants] | Immature Thrips 21 DAP (Trial (1)) [per five plants] | Damage 21 DAP (Trial (1)) | Immature Thrips 14 DAP (Trial (2)) [per five plants] | thrips control compared to the untreated check (trials 1 and 2, cotton seed treatment) [%] | thrips control (14 and 21 days after planting, cotton seed treatment)
abamectin [Abamectin (c)] | 13 | 39.25 | 50.5 | 4 | 71.5 | ~50 | 
CN1COCN(Cc2cnc(Cl)s2)/C1=N\[N+](=O)[O-] [Thiamethoxam (b), thiamethoxam] | 5 | 13 | 20.25 | 3.3 | 15 |  | approximately 85%
